Data reported in ChEMBL document CHEMBL3271994, “Diethyl (4baalpha,4calpha,9aalpha,9balpha)-3,6-dichlorocyclobuta[1,2-b:3,4-b']bisbenzofuran-9a,9b(4bH,4cH)-dicarboxylate: the cis,syn photodimer of ethyl 5-chlorobenzofuran-2-carboxylate, an analogue related to the antilipidemic drug clofibrate” (J Med Chem, 1978).
Calls of active or inactive are those of the source. No cut-off for these calls is given here.

What was measured:
[1] = system: Rattus norvegicus; experiment: Increase in microsomal protein level in sucrose-fed Sprague-Dawley rat model at 0.2 mmol/kg, po bid administered for 7 days measured after 12 hrs post last dose (reference value: 32.7 +/- 2.2 mg/gm); format: ADME, organism-based; settings: in vivo
[2] = system: Rattus norvegicus; experiment: Antilipidemic activity in sucrose fed Sprague-Dawley rat model assessed as serum cholesterol level at 0.2 mmol/kg, po bid administered for 7 days measured after 12 hrs post last dose (reference value: 61.7 +/- 11.6 mg/dL); format: functional
[3] = system: Rattus norvegicus; experiment: Increase in NADPH cytochrome c reductase activity in sucrose-fed Sprague-Dawley rat model at 0.2 mmol/kg, po bid administered for 7 days measured after 12 hrs post last dose relative to control; format: ADME, organism-based; settings: in vivo
[4] = system: Rattus norvegicus; experiment: Antilipidemic activity in triton WR-1339-induced hyperlipidemic Sprague-Dawley rat model assessed as reduction of serum triglyceride level at 0.124 mM/kg relative to control; format: functional; parameters: scale not given: the % may be the effect or the level left
[5] = system: Rattus norvegicus; experiment: Antilipidemic activity in purina chow fed Sprague-Dawley rat assessed as reduction of serum triglyceride level at 0.124 mM/kg relative to control; format: functional; parameters: scale not given: the % may be the effect or the level left
[6] = system: Rattus norvegicus; experiment: Antilipidemic activity in sucrose-fed Sprague-Dawley rat model assessed as reduction of liver cholesterol level at 0.2 mmol/kg, po bid administered for 7 days measured after 12 hrs post last dose (reference value: 1.86 +/- 0.17 mg/gm); format: functional
[7] = system: Rattus norvegicus; experiment: Antilipidemic activity in sucrose-fed Sprague-Dawley rat model assessed as reduction of liver cholesterol level at 0.4 mmol/kg, po bid administered for 7 days measured after 12 hrs post last dose (reference value: 1.86 +/- 0.17 mg/gm); format: functional
[8] = system: Rattus norvegicus; experiment: Antilipidemic activity in triton WR-1339-induced hyperlipidemic Sprague-Dawley rat model assessed as reduction of plasma lipid level at 0.124 mM/kg measured 43 hrs after triton WR-1339 challenge
[9] = system: Rattus norvegicus; experiment: Antilipidemic activity in sucrose-fed Sprague-Dawley rat model assessed as reduction of liver triglyceride level at 0.2 mmol/kg, po bid administered for 7 days measured after 12 hrs post last dose relative to control; format: functional
[10] = system: Rattus norvegicus; experiment: Antilipidemic activity in sucrose fed Sprague-Dawley rat model assessed as serum triglyceride level at 0.4 mmol/kg, po bid administered for 7 days measured after 12 hrs post last dose (reference value: 91.9 +/- 19.8 mg/dL); format: functional
[11] = system: Rattus norvegicus; experiment: Increase in microsomal protein level in sucrose-fed Sprague-Dawley rat model at 0.4 mmol/kg, po bid administered for 7 days measured after 12 hrs post last dose (reference value: 32.7 +/- 2.2 mg/gm); format: ADME, organism-based; settings: in vivo
[12] = system: Rattus norvegicus; experiment: Increase in ethylmorphine N-demethylase activity in sucrose-fed Sprague-Dawley rat model at 0.2 mmol/kg, po bid administered for 7 days measured after 12 hrs post last dose relative to control; format: ADME, organism-based; settings: in vivo
[13] = system: Rattus norvegicus; experiment: Effect on cytochrome P450 level in sucrose-fed Sprague-Dawley rat model assessed per mg of protein at 0.2 mmol/kg, po bid administered for 7 days measured after 12 hrs post last dose (reference value: 0.361 +/- […] nmol); format: ADME, organism-based; settings: in vivo
[14] = system: Rattus norvegicus; experiment: Antilipidemic activity in sucrose-fed Sprague-Dawley rat model assessed as reduction of liver triglyceride level at 0.4 mmol/kg, po bid administered for 7 days measured after 12 hrs post last dose relative to control; format: functional
[15] = system: Rattus norvegicus; experiment: Effect on cytochrome b5 level in sucrose-fed Sprague-Dawley rat model assessed per mg of protein at 0.2 mmol/kg, po bid administered for 7 days measured after 12 hrs post last dose (reference value: 0.184 +/- 0.023 nmol); format: ADME, organism-based; settings: in vivo
[16] = system: Rattus norvegicus; experiment: Increase in liver to body weight ratio in sucrose-fed Sprague-Dawley rat model at 0.2 mmol/kg, po bid administered for 7 days measured after 12 hrs post last dose (reference value: 4.07 +/- 0.28 %); format: ADME, organism-based; settings: in vivo
[17] = system: Rattus norvegicus; experiment: Antilipidemic activity in purina chow fed Sprague-Dawley rat assessed as reduction of serum cholesterol level at 0.124 mM/kg relative to control; format: functional; parameters: scale not given: the % may be the effect or the level left
[18] = system: Rattus norvegicus; experiment: Increase in NADPH cytochrome c reductase activity in sucrose-fed Sprague-Dawley rat model at 0.2 mmol/kg, po bid administered for 7 days measured after 12 hrs post last dose (reference value: 148.7 +/- 17.7 nmol/mg/min); format: ADME, organism-based; settings: in vivo
[19] = system: Rattus norvegicus; experiment: Antilipidemic activity in sucrose fed Sprague-Dawley rat model assessed as serum triglyceride level at 0.2 mmol/kg, po bid administered for 7 days measured after 12 hrs post last dose (reference value: 91.9 +/- 19.8 mg/dL); format: functional
[20] = system: Rattus norvegicus; experiment: Antilipidemic activity in triton WR-1339-induced hyperlipidemic Sprague-Dawley rat model assessed as reduction of serum cholesterol level at 0.124 mM/kg relative to control; format: functional; parameters: scale not given: the % may be the effect or the level left
[21] = system: Rattus norvegicus; experiment: Increase in liver weight in sucrose-fed Sprague-Dawley rat model at 0.2 mmol/kg, po bid administered for 7 days measured after 12 hrs post last dose (reference value: 11.76 +/- 1.32 gm); format: ADME, organism-based; settings: in vivo
[22] = system: Rattus norvegicus; experiment: Increase in liver weight in sucrose-fed Sprague-Dawley rat model at 0.4 mmol/kg, po bid administered for 7 days measured after 12 hrs post last dose (reference value: 11.76 +/- 1.32 gm); format: ADME, organism-based; settings: in vivo
[23] = system: Rattus norvegicus; experiment: Antilipidemic activity in sucrose fed Sprague-Dawley rat model assessed as serum cholesterol level at 0.4 mmol/kg, po bid administered for 7 days measured after 12 hrs post last dose (reference value: 61.7 +/- 11.6 mg/dL); format: functional
[24] = system: Rattus norvegicus; experiment: Effect on cytochrome P450 level in sucrose-fed Sprague-Dawley rat model assessed per mg of protein at 0.2 mmol/kg, po bid administered for 7 days measured after 12 hrs post last dose relative to control; format: ADME, organism-based; settings: in vivo
[25] = system: Rattus norvegicus; experiment: Antilipidemic activity in sucrose-fed Sprague-Dawley rat model assessed as reduction in HMG-CoA reductase activity at 0.2 mmol/kg, po bid administered for 7 days measured after 12 hrs post last dose relative to control; format: functional
[26] = system: Rattus norvegicus; experiment: Antilipidemic activity in sucrose-fed Sprague-Dawley rat model assessed as reduction in HMG-CoA reductase activity at 0.4 mmol/kg, po bid administered for 7 days measured after 12 hrs post last dose relative to control; format: functional
[27] = system: Rattus norvegicus; experiment: Increase in liver to body weight ratio in sucrose-fed Sprague-Dawley rat model at 0.4 mmol/kg, po bid administered for 7 days measured after 12 hrs post last dose (reference value: 4.07 +/- 0.28 %); format: ADME, organism-based; settings: in vivo
[28] = system: Rattus norvegicus; experiment: Effect on cytochrome b5 level in sucrose-fed Sprague-Dawley rat model assessed per mg of protein at 0.4 mmol/kg, po bid administered for 7 days measured after 12 hrs post last dose (reference value: 0.184 +/- 0.023 nmol); format: ADME, organism-based; settings: in vivo
[29] = system: Rattus norvegicus; experiment: Increase in ethylmorphine N-demethylase activity in sucrose-fed Sprague-Dawley rat model at 0.4 mmol/kg, po bid administered for 7 days measured after 12 hrs post last dose relative to control; format: ADME, organism-based; settings: in vivo
[30] = system: Rattus norvegicus; experiment: Increase in NADPH cytochrome c reductase activity in sucrose-fed Sprague-Dawley rat model at 0.4 mmol/kg, po bid administered for 7 days measured after 12 hrs post last dose relative to control; format: ADME, organism-based; settings: in vivo
[31] = system: Rattus norvegicus; experiment: Effect on cytochrome P450 level in sucrose-fed Sprague-Dawley rat model assessed per mg of protein at 0.4 mmol/kg, po bid administered for 7 days measured after 12 hrs post last dose relative to control; format: ADME, organism-based; settings: in vivo

Structure (SMILES)	Activity [4]	Activity [5]	Activity [7]	Activity [8]	Activity [10]	Activity [11]	Activity [14]	Activity [17]	Activity [20]	Activity [22]	Activity [23]	Activity [26]	Activity [27]	Activity [28]	other results
CCOC(=O)[C@@]12Oc3ccc(Cl)cc3[C@@H]1[C@@H]1c3cc(Cl)ccc3O[C@@]12C(=O)OCC	33%	24.3%	2.1 mg/g	inactive	102.7 mg/dL	38.2 mg/g	12.34 mg/g	63.9%	176.7%	11.99 g	81 mg/dL	2.41 nmol/mg/h	4.03%	0.19 nmol	Activity [1]: 41.4 mg/g; Activity [2]: 69.5 mg/dL; Activity [3]: 123%; Activity [6]: 1.98 mg/g; Activity [9]: 8.09 mg/g; Activity [12]: 157%; Activity [13]: 0.386 nmol; Activity [15]: 0.179 nmol; Activity [16]: 3.69%; Activity [18]: 168.7 nmol/mg/min; Activity [19]: 70.2 mg/dL; Activity [21]: 11.24 g; Activity [24]: 138%; Activity [25]: 2.42 nmol/mg/h
CCOC(=O)C(C)(C)Oc1ccc(Cl)cc1 [CLOFIBRATE]	22.3%	24.1%	1.84 mg/g	inactive	26.9 mg/dL	39.3 mg/g	3.21 mg/g	87%	93.2%	14.3 g	31.7 mg/dL	2.1 nmol/mg/h	5.24%	0.2 nmol	Activity [29]: 180%; Activity [30]: 163%; Activity [31]: 262%
